In ChEMBL document CHEMBL1135930, “Identification of nonpeptidic urotensin II receptor antagonists by virtual screening based on a pharmacophore model derived from structure-activity relationships and nuclear magnetic resonance studies on urotensin II” (J Med Chem, 2002) one finds NA and EC50 data, which are given here for 21 molecules.

SMILES strings stand for the structures. Activity calls are given as the source filed them. The rule behind the calls is not given here. Positions of bridges follow the written chain, without caps; N, C: chain ends. Residues, ends and D or L forms follow the SMILES beside them.

In one test the target is T1, Urotensin-2 receptor (Homo sapiens) (UniProt Q9UKP6).
T1 sequence (whole entry): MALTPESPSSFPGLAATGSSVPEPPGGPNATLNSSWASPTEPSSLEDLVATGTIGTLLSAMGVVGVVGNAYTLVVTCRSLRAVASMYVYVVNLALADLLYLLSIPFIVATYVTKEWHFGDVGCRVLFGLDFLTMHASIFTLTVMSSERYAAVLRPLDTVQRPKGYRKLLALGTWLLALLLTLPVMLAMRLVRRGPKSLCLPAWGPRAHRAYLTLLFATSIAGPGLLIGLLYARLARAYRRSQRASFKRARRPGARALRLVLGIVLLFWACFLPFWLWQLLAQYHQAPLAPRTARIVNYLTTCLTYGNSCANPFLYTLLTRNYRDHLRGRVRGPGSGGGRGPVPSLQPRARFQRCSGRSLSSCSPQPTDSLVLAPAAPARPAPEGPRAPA
The following applies: CHO.
As for `CC(C)[C@H](NC(=O)[C@H](CS)NC(=O)[C@H](CCCCN)NC(=O)[C@H](Cc1c[nH]c2ccccc12)NC(=O)[C@H](Cc1ccccc1)NC(=O)[C@H](CS)NC(=O)[C@H](CC(=O)O)NC(=O)[C@H]1CCCN1C(=O)[C@@H](NC(=O)[C@@H](N)CCC(=O)O)[C@@H](C)O)C(=O)O`, the NA result was “inactive”.
The same measure, in the same setting: the same measure for `CC(C)[C@H](NC(=O)[C@H](CS)NC(=O)[C@@H](Cc1ccc(O)cc1)NC(=O)[C@H](CCCCN)NC(=O)[C@H](Cc1c[nH]c2ccccc12)NC(=O)[C@H](Cc1ccccc1)NC(=O)[C@H](CS)NC(=O)[C@H](CC(=O)O)NC(=O)[C@H]1CCCN1C(=O)[C@@H](NC(=O)[C@@H](N)CCC(=O)O)[C@@H](C)O)C(=O)O`: “inactive”; for `CC(C)[C@H](NC(=O)[C@H](CS)NC(=O)[C@H](Cc1ccc(O)cc1)NC(=O)[C@H](Cc1c[nH]c2ccccc12)NC(=O)[C@H](Cc1ccccc1)NC(=O)[C@H](CS)NC(=O)[C@H](CC(=O)O)NC(=O)[C@H]1CCCN1C(=O)[C@@H](NC(=O)[C@@H](N)CCC(=O)O)[C@@H](C)O)C(=O)O`: “inactive”.

For the next test, the target named is T2, Urotensin-2 receptor (Homo sapiens, UniProt Q9UKP6).
T2 sequence (Q9UKP6 whole entry): T1 sequence (whole entry)
The test can be described thus: Mobilization of intracellular calcium in CHO cells transiently transfected with human Urotensin 2 receptor.
Details: not given
The class given is functional, cell-based.
Consider `CC(C)[C@H](NC(=O)[C@H](CS)NC(=O)[C@H](Cc1ccc(O)cc1)NC(=O)[C@H](CCCCN)NC(=O)[C@H](Cc1c[nH]c2ccccc12)NC(=O)[C@H](Cc1ccccc1)NC(=O)[C@H](CS)NC(=O)[C@H](C)NC(=O)[C@@H]1CCCN1C(=O)[C@@H](NC(=O)[C@@H](N)CCC(=O)O)[C@@H](C)O)C(=O)O`, for which the EC50 was found to be 2.7 nM.
As for `CC(C)[C@H](NC(=O)[C@H](CS)NC(=O)[C@H](Cc1ccc(O)cc1)NC(=O)[C@H](CCCCN)NC(=O)[C@H](Cc1c[nH]c2ccccc12)NC(=O)[C@H](Cc1ccccc1)NC(=O)[C@H](CS)NC(=O)[C@H](CC(=O)O)NC(=O)[C@@H]1CCCN1C(=O)[C@@H](NC(=O)[C@H](C)N)[C@@H](C)O)C(=O)O`, the EC50 was 1.8 nM.
For `NCCCC[C@H](NC(=O)[C@H](Cc1c[nH]c2ccccc12)NC(=O)[C@H](Cc1ccccc1)NC(=O)[C@@H](N)CS)C(=O)N[C@@H](Cc1ccc(O)cc1)C(=O)N[C@@H](CS)C(N)=O` (H-CFWKYC-NH2), the EC50 was 2.3 nM.
The same measure, in the same setting: the value for `CC(C)[C@H](NC(=O)[C@H](CS)NC(=O)[C@H](Cc1ccc(O)cc1)NC(=O)[C@H](CCCCN)NC(=O)[C@H](Cc1c[nH]c2ccccc12)NC(=O)[C@H](Cc1ccccc1)NC(=O)[C@H](C)NC(=O)[C@H](CC(=O)O)NC(=O)[C@@H]1CCCN1C(=O)[C@@H](NC(=O)[C@@H](N)CCC(=O)O)[C@@H](C)O)C(=O)O` was 233 nM; that for `CC(C)[C@H](NC(=O)[C@H](CS)NC(=O)[C@H](Cc1ccc(O)cc1)NC(=O)[C@H](CCCCN)NC(=O)[C@H](Cc1c[nH]c2ccccc12)NC(=O)[C@H](Cc1ccccc1)NC(=O)[C@@H](N)CS)C(=O)O` (H-CFWKYCV-OH) was 1.8 nM; that for `CC(C)[C@H](NC(=O)[C@H](CS)NC(=O)[C@H](Cc1ccc(O)cc1)NC(=O)[C@H](CCCCN)NC(=O)[C@H](Cc1c[nH]c2ccccc12)NC(=O)[C@H](Cc1ccccc1)NC(=O)[C@H](CS)NC(=O)[C@H](CC(=O)O)NC(=O)[C@@H]1CCCN1C(=O)[C@H](C)NC(=O)[C@@H](N)CCC(=O)O)C(=O)O` was 3.3 nM.
Still for that read-out and setting: the same measure for `CC(C)[C@H](NC(=O)[C@H](CS)NC(=O)[C@H](Cc1ccc(O)cc1)NC(=O)[C@H](CCCCN)NC(=O)[C@H](Cc1c[nH]c2ccccc12)NC(=O)[C@H](Cc1ccccc1)NC(=O)[C@H](CS)NC(=O)[C@@H](N)CC(=O)O)C(=O)O` (H-DCFWKYCV-OH): 3 nM; for `CC(C)[C@H](NC(=O)[C@H](CS)NC(=O)[C@H](Cc1ccc(O)cc1)NC(=O)[C@H](CCCCN)NC(=O)[C@H](Cc1c[nH]c2ccccc12)NC(=O)[C@H](Cc1ccccc1)NC(=O)[C@H](CS)NC(=O)[C@H](CC(=O)O)NC(=O)[C@H](C)NC(=O)[C@@H](NC(=O)[C@@H](N)CCC(=O)O)[C@@H](C)O)C(=O)O` (H-ETADCFWKYCV-OH): 1.9 nM.

Still in this test, the particulars now being: cho.
For the molecule `C[C@@H](O)[C@H](NC(=O)[C@@H](N)CCC(=O)O)C(=O)N1CCC[C@H]1C(=O)N[C@@H](CC(=O)O)C(=O)N[C@H]1CSSC[C@@H](C(=O)O)NC(=O)[C@H](Cc2ccc(O)cc2)NC(=O)[C@H](CCCCN)NC(=O)[C@H](Cc2c[nH]c3ccccc23)NC(=O)[C@H](Cc2ccccc2)NC1=O` (H-ETPDCFWKYC-OH; disulfide 5-10), the EC50 came out at 1.8 nM.
For the molecule `CC(C)[C@H](NC(=O)[C@@H]1CSSC[C@H](NC(=O)[C@H](CC(=O)O)NC(=O)[C@@H]2CCCN2C(=O)[C@@H](NC(=O)[C@@H](N)CCC(=O)O)[C@@H](C)O)C(=O)N[C@@H](Cc2ccccc2)C(=O)N[C@@H](CCCCN)C(=O)N[C@@H](Cc2ccc(O)cc2)C(=O)N1)C(=O)O` (H-ETPDCFKYCV-OH; disulfide 5-9), the EC50 is > 10000 nM.
On to `CC(C)[C@H](NC(=O)[C@@H]1CSSC[C@H](NC(=O)[C@H](CC(=O)O)NC(=O)[C@@H]2CCCN2C(=O)[C@@H](NC(=O)[C@@H](N)CCC(=O)O)[C@@H](C)O)C(=O)N[C@@H](Cc2ccccc2)C(=O)N[C@@H](C)C(=O)N[C@@H](CCCCN)C(=O)N[C@@H](Cc2ccc(O)cc2)C(=O)N1)C(=O)O` (H-ETPDCFAKYCV-OH; disulfide 5-10), for which the EC50 worked out at 1300 nM.
Same read-out and setting: the value for `C[C@H](NC(=O)[C@@H]1CSSC[C@H](NC(=O)[C@H](CC(=O)O)NC(=O)[C@@H]2CCCN2C(=O)[C@@H](NC(=O)[C@@H](N)CCC(=O)O)[C@@H](C)O)C(=O)N[C@@H](Cc2ccccc2)C(=O)N[C@@H](Cc2c[nH]c3ccccc23)C(=O)N[C@@H](CCCCN)C(=O)N[C@@H](Cc2ccc(O)cc2)C(=O)N1)C(=O)O` (H-ETPDCFWKYCA-OH; disulfide 5-10) was 3.2 nM; that for `CC(C)[C@H](NC(=O)[C@@H]1CSSC[C@H](NC(=O)[C@H](CC(=O)O)NC(=O)[C@@H]2CCCN2C(=O)[C@@H](NC(=O)[C@@H](N)CCC(=O)O)[C@@H](C)O)C(=O)N[C@@H](Cc2ccccc2)C(=O)N[C@@H](Cc2c[nH]c3ccccc23)C(=O)N[C@@H](CCCCN)C(=O)N[C@@H](C)C(=O)N1)C(=O)O` (H-ETPDCFWKACV-OH; disulfide 5-10) was 193 nM.
In the case of `CC(C)[C@H](NC(=O)[C@@H]1CSSC[C@H](NC(=O)[C@H](CC(=O)O)NC(=O)[C@@H]2CCCN2C(=O)[C@@H](NC(=O)[C@@H](N)CCC(=O)O)[C@@H](C)O)C(=O)N[C@@H](Cc2c[nH]c3ccccc23)C(=O)N[C@@H](CCCCN)C(=O)N[C@@H](Cc2ccc(O)cc2)C(=O)N1)C(=O)O` (H-ETPDCWKYCV-OH; disulfide 5-9), the EC50 stood at 53 nM.
On to `CC(C)[C@H](NC(=O)[C@@H]1CSSC[C@H](NC(=O)[C@H](CC(=O)O)NC(=O)[C@@H]2CCCN2)C(=O)N[C@@H](Cc2ccccc2)C(=O)N[C@@H](Cc2c[nH]c3ccccc23)C(=O)N[C@@H](CCCCN)C(=O)N[C@@H](Cc2ccc(O)cc2)C(=O)N1)C(=O)O` (H-PDCFWKYCV-OH; disulfide 3-8), for which the EC50 amounted to 3.6 nM.
Turning to `CC(C)[C@H](NC(=O)[C@@H]1CSSC[C@H](NC(=O)[C@H](CC(=O)O)NC(=O)[C@@H]2CCCN2C(=O)[C@@H](NC(=O)[C@@H](N)CCC(=O)O)[C@@H](C)O)C(=O)N[C@@H](C)C(=O)N[C@@H](Cc2c[nH]c3ccccc23)C(=O)N[C@@H](CCCCN)C(=O)N[C@@H](Cc2ccc(O)cc2)C(=O)N1)C(=O)O` (H-ETPDCAWKYCV-OH; disulfide 5-10), the EC50 worked out at 5.7 nM.
For `CC(C)[C@H](NC(=O)[C@@H]1CSSC[C@H](NC(=O)[C@H](CC(=O)O)NC(=O)[C@@H]2CCCN2C(=O)[C@@H](N)[C@@H](C)O)C(=O)N[C@@H](Cc2ccccc2)C(=O)N[C@@H](Cc2c[nH]c3ccccc23)C(=O)N[C@@H](CCCCN)C(=O)N[C@@H](Cc2ccc(O)cc2)C(=O)N1)C(=O)O` (H-TPDCFWKYCV-OH; disulfide 4-9), the EC50 turned out to be 2.4 nM.
Turning to `CC(C)[C@H](NC(=O)[C@@H]1CSSC[C@H](NC(=O)[C@H](CC(=O)O)NC(=O)[C@@H]2CCCN2C(=O)[C@@H](NC(=O)[C@@H](N)CCC(=O)O)[C@@H](C)O)C(=O)N[C@@H](Cc2ccccc2)C(=O)N[C@@H](Cc2c[nH]c3ccccc23)C(=O)N[C@@H](C)C(=O)N[C@@H](Cc2ccc(O)cc2)C(=O)N1)C(=O)O` (H-ETPDCFWAYCV-OH; disulfide 5-10), the EC50 turned out to be 14800 nM.
